Experimental data reported in patent publication US20170217914A1, “Novel Triarylethylene Compounds and Methods Using Same” (The Penn State Research Foundation, priority 2014, published 2017).
Where two headings read alike, the source gives them in different places.

Tests used:
MCF-7 cells = assay: Live/Dead assay by flow cytometry, MCF-7 cells; assay type: cell-based, human; details: 24 h
Excerpt: (§1) To measure cell death, the Live/Dead assay (Life technologies, USA) was used, which determines intracellular esterase activity and plasma membrane integrity (Pandey et al., 2013, PloS One 8:e78570). Nonfluorescent polyanionic dye calcein AM is retained by live cells and by enzymatic conversion (esterase) it becomes fluorescent, produces intense green fluorescence in live cells. Ethidium homodimer enters cells with damaged membranes and binds to nucleic acids, thereby producing a bright red fluorescence in dead cells. […] Cells were stained with the Live and Dead reagent (5 μM ethidium homodimer and 5 μM calcein-AM) and analyzed by flow cytometry according to the manufacture's protocols.

[1] = test system: MCF-7 (ER-positive) human breast cancer cell line; assay: MTT cell viability assay, MCF-7 cells; details: for anticancer activity in initial screening: 0.5-25 μM, 48 h (FIG. 3); for times more cytotoxic than Tamoxifen / times more effective than Ospemifene: 96 h time point; for IC50: Homo sapiens, read-out: MCF-7 (ER positive) IC50; for cytotoxic activity: 72 h, versus Ospemifene and Tamoxifen
Protocol: (§3) An MTT solution was added to each well and incubated for 3 h at 37° C. After 3 h, DMSO was added and the optical density was measured at 570 nm using a 96-well multiscanner (Dynex Technologies, MRX Revelation; Chantilly, Va., USA). Backgrounds were subtracted at 630 nm. IC50 values were calculated by non-linear regression analysis using Prism software.
(§4) The effects of novel triarylethylene derivatives on the cell viability were determined by the MTT uptake method using previously described methods (Kaur et al., 2014, Eur. J. Med. Chem. 86:211-218). Briefly, 3000 cells were incubated with various concentrations of compounds in triplicate in a 96-well plate for 72 h at 37° C. An MTT solution was added to each well and incubated for 3 h at 37° C. After 3 h, DMSO was added and the optical density was measured at 570 nm using a 96-well multiscanner (Dynex Technologies, MRX Revelation; Chantilly, Va., USA). Backgrounds were subtracted at 630 nm. IC50 values were calculated by non-linear regression analysis using Prism software.

[2] = test system: MDA-MB-231 (ER-negative) human breast cancer cell line; assay: MTT cell viability assay, MDA-MB-231 cells; details: for anticancer activity in initial screening: 0.5-25 μM, 48 h (FIG. 3); for times more cytotoxic than Tamoxifen / times more effective than Ospemifene: 96 h time point; for IC50: Homo sapiens, read-out: MDA-MB-231 (ER− negative) IC50; for cytotoxic activity: 72 h, versus Ospemifene and Tamoxifen
Protocol: as §3, §4

[3] = test system: normal mouse embryonic fibroblast (MEF) cells; assay: MTT cell viability assay, normal MEF cells; details: 48 h
Protocol: as §3

MDA-MB-231 cells [4] = assay: Live/Dead assay by flow cytometry, MDA-MB-231 cells; assay type: cell-based, human; details: 24 h, 10 μM
Excerpt: as §1

MMP-9 = assay: Western blot, MMP-9 expression in breast cancer cells; assay type: cell-based, human; details: MDA-MB-231 and MCF-7 cells, 24 h
Protocol: (§2) To determine the effect of novel triarylethylene derivatives on proteins involved in metastasis, and adhesion, whole-cell extracts were prepared by subjecting cells to lysis in RIPA buffer supplemented with protease and phosphatase inhibitor cocktails using previously described methods (Pandey et al., 2014, Exp. Hematol. 42:883-896). Lysates were spun at 15,000 rpm for 10 minutes to remove insoluble material. Supernatant were collected and kept at −80° C. Lysates were resolved by SDS-PAGE. After electrophoresis, the proteins were electro-transferred to PVDF membranes, blotted with the relevant antibodies, and detected by enhanced chemo-luminescence reagent.

c-Myc = assay: Western blot, c-Myc expression in breast cancer cells; assay type: cell-based, human; details: MDA-MB-231 and MCF-7 cells, 24 h
Protocol: as §2

caveolin = assay: Western blot, caveolin expression in breast cancer cells; assay type: cell-based, human; details: MDA-MB-231 and MCF-7 cells, 24 h
Protocol: as §2

MDA-MB-231 cells [5] = assay: In vitro Matrigel invasion assay; assay type: cell-based, human; details: dose dependent
Protocol: Human breast cancer MDA-MB-231 cells were serum starved for 24 h in serum-free medium (DMEM without FBS). After starving 50,000 cells were transferred onto Matrigel pre-coated invasion inserts (upper chamber, BD Biocoat). Lower chambers of plate were filled with complete medium (DMEM and 10% FBS) and cells were allowed to migrate under chemotaxis. […] After incubation cells that had invaded to the opposite side of the Transwell membrane were washed with PBS and fixed in chilled 70% ethanol for 15 min and air dried. Cells were stained with 0.5% crystal violet for 10 min. Cells were washed, dried, and images were captured at 40× magnification.

IC50 ([1]; MCF7, 48 h) [µM]	IC50 ([1]; MCF7, 96 h) [µM]	IC50 ([2]; MDA-MB-231, 48 h) [µM]	IC50 ([2]; MDA-MB-231, 96 h) [µM]	Compound	anticancer activity in initial screening [1]	times more cytotoxic than Tamoxifen [1]	times more effective than Ospemifene [1]	anticancer activity in initial screening [2]	times more cytotoxic than Tamoxifen [2]	times more effective than Ospemifene [2]	toxicity to normal MEF cells [3]	expression of MMP-9 (MMP-9)	expression of c-Myc (c-Myc)	expression of caveolin (caveolin)	cytotoxic activity ([1]; MTT)	cytotoxic activity ([2]; MTT)	other results
15.9	12.4	25	14.5	NCC/C(=C(\c1ccccc1)c1ccc(OCCO)cc1)c1ccccc1 [Compound 6, (Z)-2-{4-(4-amino-1,2-diphenylbut-1-enyl)phenoxy}ethanol]	more potent than Ospemifene	at least five	about five	more potent than Ospemifene	at least five	eight	non-toxic						dead cells (MCF-7 cells; increasing amount of compound): 50-70%
23.6	11.2	17.1	13.4	NCCOc1ccc(/C(=C(/CCN)c2ccccc2)c2ccccc2)cc1 [Compound 7, (Z)-4-{4-(2-aminoethoxy)phenyl}-3,4-diphenylbut-3-en-1-amine]	more potent than Ospemifene	at least five	about five	more potent than Ospemifene	at least five	eight	non-toxic						cells killed (MCF-7 cells; 10 μM): 70%; cells killed (MDA-MB-231 cells [4]): 70%
				(Z)-[4-azido-1-{4-(2-azidoethoxy) phenyl}but-1-ene-1,2-diyl]dibenzene [Compound 5]								inhibited the expression	inhibited the expression	inhibited the expression	much more effective than the standards	much more effective than the standards	effect on invasion of ER-negative cells (MDA-MB-231 cells [5]): suppressed the invasion
				COc1ccc(/C(=C(/CCN)c2ccccc2)c2ccccc2)cc1 [Compound 13, (Z)-4-(4-Methoxyphenyl)-3,4-diphenylbut-3-en-1-amine]								inhibited the expression	inhibited the expression	inhibited the expression	remarkable activity	remarkable activity	melting point: 129 to 131 °C; effectiveness versus Ospemifene and Tamoxifen ([1]; MTT, 0.5-100 μM, 48 h (FIG. 28B)): more effective; effectiveness versus Ospemifene and Tamoxifen ([2]; MTT, 0.5-100 μM, 48 h (FIG. 28A)): more effective

Compound	IC50 ([1]; MCF7, 48 h) [µM]	IC50 ([1]; MCF7, 96 h) [µM]	IC50 ([2]; MDA-MB-231, 48 h) [µM]	IC50 ([2]; MDA-MB-231, 96 h) [µM]	anticancer activity in initial screening [1]	times more cytotoxic than Tamoxifen [1]	times more effective than Ospemifene [1]	anticancer activity in initial screening [2]	times more cytotoxic than Tamoxifen [2]	times more effective than Ospemifene [2]	toxicity to normal MEF cells [3]	expression of MMP-9 (MMP-9)	expression of c-Myc (c-Myc)	expression of caveolin (caveolin)	cytotoxic activity ([1]; MTT)	cytotoxic activity ([2]; MTT)	other results
OCCOc1ccc(/C(=C(/CCCl)c2ccccc2)c2ccccc2)cc1 [Ospemifene, (Z)-2-{4-(4-chloro-1,2-diphenylbut-1-enyl)phenoxy}ethanol, reference compound]	> 100	55	> 100	> 100							non-toxic						cell death ([1]; initial screening, 25 μM): ~40%
